Entries after “also recorded” stand apart in the source; their conditions may differ. Peptide text beside a SMILES is read from it. * marks the point of attachment. Cbz = O=C(OCc1ccccc1)*; CH2F = FC*

This note sets out measurements from patent publication US20250161399A1, “TARGETING SLC46A2-MEDIATED MUROPEPTIDE TRANSPORT TO TREAT PSORIASIS” (University of Massachusetts, priority 2021, published 2025).

For test [1], the system named is mouse skin (NOD1/NOD2 response). Briefly: neutrophil recruitment to pinnae after intradermal injection. Type of test: in vivo. The following applies: for neutrophil recruitment response in Slc46a2-deficient mice compared to WT: Tri-DAP 25 μM, C12-iE-DAP 20 μM. The procedure:
[…] After 3 h, both ears were individually harvested, and stored in ice cold PBS on ice until further processing for flow cytometry staining.
Pinnae were cut into small pieces and incubated for 30 min at 37° C. in a solution of 1 mg/ml collagenase (Sigma) in DMEM media containing 10% FBS. Ice-cold FACS buffer (2% FBS in PBS) was added to skin samples to stop the reaction. Then samples were placed on 70 μm cell strainers and ground using a cell strainer pestle to create a single cell suspension. Cells were spun at 180 g for 5 min at 4° C. and resuspended in FACS buffer.
(§1) 1×10^6 cells were stained with F4/80-PE/Cy7 (1:200), CD45-alexaflour700 (1:200) and Gr1-PE (1:200) for 30 min on ice in the dark. Samples were washed three times with FACS buffer and analyzed with a Cytek Aurora cytometer. Results were analyzed with FlowJo software (Tree Star, USA).

Test [2] concerns mouse peritoneum (NOD1/NOD2 response). Briefly: neutrophil recruitment to the peritoneum after intraperitoneal injection. Type of test: in vivo. The following applies: 3 h, iE-DAP 30 μM, MDP 10 μM. The procedure:
For peritoneal cell extraction, animals were euthanized and cells from peritoneal cavity were isolated by peritoneal lavage (58). Harvested cell suspensions were centrifuged at 300 g for 5 min at 4° C. and resuspended in FACS buffer.
as §1

Test [3] has as its system psoriasis-like inflammation on mouse pinnae. Briefly: IMQ model of psoriasis-like dermatitis (ear thickness, H&E histology). Type of test: in vivo. The conditions noted are these: 7-day course of topical IMQ. The procedure: Pinnae were harvested 3 h after DAP-muropeptide administration or 7 d after topical application of IMQ and fixed in PBS containing 10% formalin. Paraffin-embedded sections were cut at […], stained with H&E, and imaged by light microscopy.
The induction of psoriasis-like inflammation on mouse pinnae was done as previously described (60). In brief, mice were treated daily for up to 6 d with 5 mg 5% IMQ cream topically applied on one pinna, while the other pinnae were treated with a similar amount of Vaseline, as vehicle control. Ear thickness was measured daily using a digital caliper. The change in ear thickness over time was reported as the difference related to the first day of topical application. For the bacterial assisted psoriasis model, 5 mg 5% IMQ cream was topically applied on one pinna, while the contralateral pinna was treated with a similar amount of Vaseline for 3 days, and then 10^7 CFU of C. accolens, in 50% glycerol, was topically applied daily to both pinnae. Ear thickness was measured daily using a digital caliper. C. accolens, originally from ATCC, was provided by J. Kang and grown as described (61).

In test [4] the test system is primary mouse keratinocytes. Put plainly: keratinocyte cell permeabilization assay (Sytox dye uptake, live cell imaging). It is filed as cell-based. The following applies: WT keratinocytes, 30 μM iE-DAP, 24 h; MTX increasing concentration, zVAD-fmk 10 μM, DMF 50 μM. The procedure: Adult (6-8 weeks) mouse keratinocytes were isolated from male or female animals using protocols described previously (57). In brief, tail skin was incubated in 1 mg/ml Dispase II (Roche) overnight at 4° C. The epidermis was physically removed from the dermis with tweezers following Dispase II treatment, subsequently digested with TrypLE (Thermo) for 20 min at room temperature, and keratinocytes were detached by vigorously shaking in EpiLife culture medium and filtered with a 70 μm strainer (Fisher scientific). Isolated cells were seeded at a density of 10^5 cells/cm^2 cultured with EpiLife (Gibco) in 12-well plates precoated with coating matrix (Gibco) and used between 3 and 5 days after isolation.
For cell permeabilization assays, 1×10^5 keratinocytes/well were seeded in a 96-well plate (Denville Scientific Inc.). After reaching 80% confluency, 30 μM iE-DAP was added to culture media with 1 nM Sytox red dye (Thermo) and 0.2 nM hoechst stain (Thermo). Plates were then cultured in a Cytation5 (BioTek) live imaging device and each well was imaged every 30 min for 24 hours. For analysis, Gen5 software were used to count the total number of Hoechst-stained nuclei and the total number of permeabilized cells were quantified as the number of Sytox positive nuclei. The Percentage of Sytox^+ cells was then calculated and plotted.

Test [5] deals with HSE dermal fibroblasts (CXCL8). Put plainly: CXCL8 induction in Human Skin Equivalents (HSE) skin organoids. It is filed as cell-based. The conditions noted are these: concomitant treatment with iE-DAP.
Test [6] deals with primary dermal fibroblasts. Briefly: CXCL1 (KC) ELISA from primary dermal fibroblasts. The following applies: iE-DAP 30 μM or IL-1α 10 ng/ml, 24 hrs. Type of test: cell-based, mouse. The procedure: Mouse dermal fibroblasts were isolated as described herein. In brief, mouse pinnae were incubated on a table shaker (200 rpm) in a collagenase D-pronase solution [2.5 mg/ml collagenase-D (Sigma), 20 mg/ml pronase (Sigma) diluted in 1M Tris, pH 8.0 and containing 1 μM EDTA (Sigma)] for 90 min at 37° C. Fibroblasts were then isolated by pressing digested skin through a 70 μm cell strainer, and cells were collected and cultured in RPMI 1640 medium with 10% FBS, 50 μM 2-mercaptoethanol, 100 μM asparagine, 2 mM glutamine, 1% penicillin-streptomycin for 2-4 passages before stimulating with immune elicitors, and/or harvesting media or cells.
For cytokine ELISAs from dermal fibroblast, cells were challenged with IL-1α (10 ng/ml) or 30 μM iE-DAP for 24 h, and media was collected and processed for ELISA as described above.

The mark [7] stands for this setting: intradermal, 3 h, TCT 8 μM, iE-DAP 30 μM, MDP 10 μM.

On to `CC(=O)N[C@H]1C(O)O[C@H](CO)[C@@H](O)[C@@H]1O[C@H](C)C(=O)N[C@@H](C)C(=O)N[C@H](CCC(=O)O)C(N)=O` (mixture of isomers) [MDP, muramyl dipeptide], for which the “neutrophil recruitment response in Slc46a3−/− mice” value in test [1] (intradermal, 3 h, MDP 10 μM) is reported as “significantly defective”. Further, the “neutrophil recruitment response in Slc46a2-deficient mice compared to WT” value (from here on “neutrophil recruitment response … compared to WT”) in test [1] (setting [7]) was “responded normally”. Further, in test [2], the “neutrophil recruitment response in Slc46a2−/− mice” value is reported as “responded like wild-type” and the “neutrophil recruitment response in Slc46a3−/− mice” value is on record as “failing to respond”.

`CCCCCCCCCCCC(=O)N[C@H](CCC(=O)NC(CCCC(N)C(=O)O)C(=O)O)C(=O)O` (stereo partly drawn) [C12-iE-DAP]: the “neutrophil recruitment response … compared to WT” value in test [1] (setting [7]) is “not significantly changed”.

As for `CC(C)Cn1cnc2c(N)nc3ccccc3c21` [IMQ, imiquimod], in test [3], the “inflammation in Slc46a2- and Nod1-deficient mice” value is given as “markedly resistant”. Besides, the “inflammation in WT mice (ear thickness, H&E histology)” value in test [3] (WT mice) is reported as “expected psoriatic-like inflammation”.

With `C[C@H](N)C(=O)N[C@H](CCC(=O)NC(CCCC(N)C(=O)O)C(=O)O)C(=O)O` (stereo partly drawn) [Tri-DAP], the “neutrophil recruitment response … compared to WT” value in test [1] (setting [7]) is recorded as “significantly reduced”.

Take `COC(=O)C[C@H](NC(=O)[C@H](C)NC(=O)[C@@H](NC(=O)OCc1ccccc1)C(C)C)C(=O)CF` [zVAD-FMK] (Cbz-Val-Ala-Asp(OMe)-CH2F): in test [4], the “inhibition of DAP-muropeptide triggered keratinocyte permeabilization (Sytox uptake)” value is on record as “prevented”.

In the case of IL-1Ra: recombinant IL-1R antagonist, the “effect on iE-DAP induced CXCL8 in HSE dermis” value in test [5] was “prevented”; in test [5] (listed as IL-IRA) it was “blocked”.

In the case of tracheal cytotoxin [TCT], the “neutrophil / leukocyte recruitment to the skin in WT mice” value in test [1] (intradermal 10 μl, TCT 8 μM, LPS 10 μg/ml, iE-DAP 30 μM, 1 to 24 h) was “rapid and robust; also recorded: robust and rapid”. For the same molecule, the “time of peak leukocyte recruitment” value in test [1] (intradermal TCT, monitored between 1 and 24 h) is reported as 3 h. Also, the “neutrophil recruitment response … compared to WT” value in test [1] (setting [7]) is recorded as “significantly reduced”.

B1: IL-1α: cytokine used to challenge dermal fibroblasts (10 ng/ml) (protein, UniProt P01583 113-271, looked up)
Interleukin-1 alpha: SAPFSFLSNVKYNFMRIIKYEFILNDALNQSIIRANDQYLTAAALHNLDEAVKFDMGAYKSSKDDAKITVILRISKTQLYVTAQDEDQPVLLKEMPEIPKTITGSETNLLFFWETHGTKNYFTSVAHPNLFIATKQDYWVCLAGGPPSITDFQILENQA
With B1, the “CXCL1 (KC) response of primary dermal fibroblasts” value in test [6] was “induced”.
